Measured values taken from patent publication US7252992B2, “Cell line and uses thereof” (Abbott Laboratories, priority 2003, dated 2007).

How the values were obtained:
[1] = biological target: T1, melanin concentrating hormone receptor (MCHR) (Homo sapiens, UniProt Q99705); assay: Ca++-mobilization assay using I3.4.2 cells (FLIPR); format: cell-based; settings: for inhibition of MCH-stimulated intracellular Ca++-flux: T42402I3.4.2 cell line, FIG. 3
T1 construct: endogenous in cells; host or cells: T42402I3.4.2 (I3.4.2) cells, ATCC PTA-5201, derived from IMR32 (ATCC CCL-127) by transfection of a Galpha16/Zeocin-resistance plasmid
Method: The following day, Zeocin (Invitrogen, Carlsbad, Calif.) was added to a final concentration of 20 μg/ml. Cells were maintained in this medium with periodic replacement until discrete colonies were observed. Individual colonies were isolated and propagated until sufficiently large cell populations were obtained such that the cell samples could be cryopreserved.
This intracellular calcium release is measured using a fluorometeric imaging plate reader (FLIPR™, Molecular Devices Corp., Sunnyvale, Calif.) in conjunction with the Ca^++-sensitive dye reagent (Calcium Assay Reagent, Molecular Devices Corp., Sunnyvale, Calif.). Release of Ca^++ from intracellular stores causes an increase in fluorescence of the dye that is proportional to Ca^++ concentration. Thus, this method may be utillized to identify agonist-s, antagonists, and inverse agonists of MCHR1.
In particular, the assay is carried out as follows: The cells are cultured in MEM/10% fetal bovine serum/50 μg/mL gentamicin/200 μg/ml Zeocin. […] Calcium Assay Reagent fluorescence is measured at 488 nm, with an exposure of 0.40 sec. and F-stop=2.0 and the laser set at 0.20-0.40 W constant light output.

MCHR1 [2] = biological target: T2, MCHR1 (Homo sapiens, UniProt Q99705); settings: literature (Takekawa et al. 2002; Borowsky et al. 2002); cited from earlier work
MCHR1 [3] = biological target: T2, MCHR1; settings: literature (Takekawa et al. 2002; Borowsky et al. 2002); cited from earlier work; remark: listed apart in the source

T1 sequence (Q99705 whole entry): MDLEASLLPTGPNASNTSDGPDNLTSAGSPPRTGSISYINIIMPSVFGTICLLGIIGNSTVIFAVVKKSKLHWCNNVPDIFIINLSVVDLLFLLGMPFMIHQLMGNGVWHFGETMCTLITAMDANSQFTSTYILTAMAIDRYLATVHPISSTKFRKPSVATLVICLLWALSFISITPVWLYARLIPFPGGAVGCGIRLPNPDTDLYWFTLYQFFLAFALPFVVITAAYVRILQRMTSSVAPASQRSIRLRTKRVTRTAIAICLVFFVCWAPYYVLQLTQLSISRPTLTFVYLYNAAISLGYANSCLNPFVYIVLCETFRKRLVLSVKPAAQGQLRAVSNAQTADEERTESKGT
T2 sequence (Q99705 whole entry, species assumed): as the sequence (Q99705 whole entry) above

Row | inhibition of MCH-stimulated intracellular Ca++-flux [1] | Compound | inhibition of binding of 125I-labeled MCH to MCHR1 (MCHR1 [2]) | inhibition of activation of intracellular signaling by MCH (MCHR1 [3]) | MCH-induced response (fluorescence) ([1]; MCH 1 μM, baseline approximately 700 RFU)
1 | inhibited | COCC1=C(C(=O)OC)[C@H](c2ccc(F)c(F)c2)N(C(=O)NCCCN2CCC(c3cccc(NC(C)=O)c3)CC2)C(=O)N1 [SNAP-7941] | inhibit binding | inhibit | 
2 |  | CSCC[C@@H]1NC(=O)[C@@H](NC(=O)[C@H](CCCNC(=N)N)NC(=O)[C@H](CC(C)C)NC(=O)[C@H](CCSC)NC(=O)[C@H](CC(=O)O)NC(=O)[C@H](Cc2ccccc2)NC(=O)[C@@H](N)CC(=O)O)CSSC[C@@H](C(=O)N[C@@H](Cc2c[nH]c3ccccc23)C(=O)N[C@@H](CCC(N)=O)C(=O)N[C@H](C(=O)O)C(C)C)NC(=O)[C@@H]2CCCN2C(=O)[C@H](CCCNC(=N)N)NC(=O)[C@H](Cc2ccc(O)cc2)NC(=O)[C@H](C(C)C)NC(=O)[C@H](CCCNC(=N)N)NC(=O)CNC(=O)[C@H](CC(C)C)NC1=O [MCH, melanin-concentrating hormone] |  |  | 5,000-6,000 relative fluorescence units (RFU)
3 | inhibited | CN(C)CC1CCc2cc(NC(=O)c3ccc(-c4ccc(F)cc4)cc3)ccc2C1 (stereo not shown) [T-226296] | inhibit binding | inhibit | 
